This note sets out measurements from PubChem BioAssay (NCI).

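Growth conditions: 96-well plates. Treatment: test compound, 48 hours, 5 concentrations. Analysis: linear interpolation between bracketing concentrations; unreached endpoints set to highest concentration. The concentration for 50% growth inhibition is given as GI50. Definition used: TGI = concentration required for complete inhibition of growth.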

What all share (assay): DTP human tumour cell line panel, 48 h
Test [1] relates to EKVX NSCLC.
For test [2], the system named is SF-268 CNS.
Test [3] deals with UACC-62 melanoma.
The subject of test [4] is RXF 393 renal.
Test [5] deals with SF-539 CNS.
Test [6] concerns OVCAR-3 ovarian.
For test [7], the system named is SK-MEL-5 melanoma.
Test [8] has as its system MOLT-4 leukemia.
The subject of test [9] is SK-MEL-28 melanoma.
The subject of test [10] is OVCAR-8 ovarian.

By GI50 is commonly meant the concentration at which growth is held to half of that of the control. As a reminder, the TGI is the concentration at which net growth stops. Turning to `O=C(CSc1ncc(-c2ccccc2)n1-c1ccccc1)Nc1ccc(-c2nc3ccccc3s2)cc1`, the GI50 in test [1] was 8.82 µM; in [2], 3.5 µM; in test [3], 22.6 µM; in [4] it was 11.2 µM; in test [5] it was 6.25 µM; in test [6] it was 7.22 µM. Besides, the GI50 in test [7] was more than 100 µM. The TGI in test [1] was more than 100 µM; in test [2], more than 100 µM; in test [3] it was more than 100 µM; in [4] it was 47.4 µM; in test [5], more than 100 µM; in [6] it was more than 100 µM. Moreover, in test [7], the TGI was more than 100 µM.
Regarding `FC(F)(F)c1ccc(NCc2nc3ccccc3[nH]2)cc1`, the GI50 in test [1] is 26.8 µM; in test [2], 40.8 µM; in [3] it was 18.7 µM; in test [4] it was 24.4 µM; in [5] it was 36.8 µM; in [8] it was 21.6 µM. Moreover, the GI50 in test [9] was 27.9 µM; in test [10], 27.5 µM; in [6] it was 21.9 µM; in test [7], 15.6 µM. The concentration for total growth inhibition (TGI) is more than 100 µM in test [1]; more than 100 µM in test [2]; 56.5 µM in [3]; 81.9 µM in test [4]; more than 100 µM in test [5]; 63 µM in [8]. The TGI in [9] was more than 100 µM; in test [10] it was more than 100 µM; in [6], 62.2 µM; in test [7] it was 30 µM.
Turning to `O=C(c1ccco1)c1c(C(F)(F)F)n([O-])c2ccc(F)cc2[n+]1=O`, the GI50 in test [1] is 2.95 µM; in test [2], 1.24 µM; in test [3], 1.21 µM; in [4] it was 0.759 µM; in test [5] it was 2.55 µM; in test [8] it was 0.219 µM. Moreover, the GI50 in [9] is 1.46 µM; in test [10], 0.558 µM; in test [6], 0.757 µM; in test [7], 1.84 µM. The total growth inhibition concentration (TGI) came to 8.09 µM in test [1]; 2.85 µM in test [2]; 2.55 µM in test [3]; 2.14 µM in test [4]; 8.32 µM in test [5]; 0.54 µM in test [8]. Also, the TGI in test [9] was found to be 2.79 µM; in test [10] it was 1.17 µM; in [6] it was 2.24 µM; in test [7] it was 5.88 µM.
As to `COC(=O)C1=C(\O)C[C@@]2(C)CC[C@@H](C(=O)OC)C2C/C=C\1C(=O)OC` (some centres undefined), the TGI was more than 100 µM in test [1]; more than 100 µM in test [2]; more than 100 µM in test [3]; more than 100 µM in test [4]; 38.8 µM in [5]; more than 100 µM in test [8]. Moreover, the TGI in [9], in test [10], in test [6] and in test [7] was more than 100 µM throughout.
As to `O=C(NC1C(=O)NNC1c1ccccc1Cl)c1ccccc1` (centres undefined), the TGI in [1], in test [2], in test [3], in test [4], in [5] and in test [8] was more than 100 µM in each case. Further, the TGI in test [9], in [10], in [6] and in [7] was more than 100 µM each time.
Regarding `COc1cc(/C=C/c2ccccn2)cc(OC)c1OC`, the TGI in test [1], in [2], in test [3], in [4], in [5] and in [8] was more than 10 µM each time. The TGI in test [9], in [10], in [6] and in test [7] was more than 10 µM in each case.
`Cc1cc(C#Cc2ccccc2)ccc1-n1c(/C=C/c2cc(O)ccc2O)nc2ccccc2c1=O`: the GI50 is 1.24 µM in test [1]; 1.31 µM in test [2]; 1.52 µM in test [3]; 1.65 µM in [4]; 1.6 µM in [5]; 1.14 µM in test [8]. The GI50 is 1.53 µM in test [9], 1.94 µM in [10], 1.49 µM in test [6] and 1.35 µM in [7]. Also, the TGI in test [1] came to 5.41 µM; in test [2], 3.07 µM; in test [3], 2.86 µM; in [4] it was 3.72 µM; in test [5], 3.44 µM; in test [8], 3.97 µM. The TGI in [9] is 2.87 µM; in [10], 5.4 µM; in test [6] it was 2.81 µM; in [7], 2.64 µM.
On to `COc1cccc(/C=C\c2ccnc3ccccc23)c1`, for which the TGI in test [1], in test [2], in [3], in [4], in [5] and in [8] was more than 10 µM throughout. In addition, the TGI in test [9], in test [10], in test [6] and in test [7] was more than 10 µM throughout.
For `CCCCC(C(=O)CCC(=O)Nc1ccc(Cl)cc1)C(=O)C(C)C` (centres undefined), the TGI in test [1], in test [2], in test [3], in [4], in test [5] and in [8] was more than 100 µM throughout. Moreover, the TGI in test [9], in test [10], in test [6] and in [7] was more than 100 µM throughout.
Take `Nc1ccc(C(=O)Nc2ccccc2N)cc1`: the TGI in test [1] is more than 100 µM; in [2] it was more than 100 µM; in [3], 39.7 µM; in test [4], more than 100 µM; in test [5], more than 100 µM; in test [8] it was 73.7 µM. The TGI in test [9] was more than 100 µM; in test [10], more than 100 µM; in test [6], more than 100 µM; in [7] it was 43.4 µM.
In the case of `O=C(O)c1cn(C2CC2)c2cc(N3CCN(Cc4ccc5ccccc5c4O)CC3)c(F)cc2c1=O`, the GI50 was more than 100 µM in [1]; 8.13 µM in [2]; 5.06 µM in [3]; 2.29 µM in test [4]; 3.71 µM in test [9]; 3.74 µM in test [10]. Besides, in [7], the GI50 was 3.78 µM. The TGI was more than 100 µM in test [1]; more than 100 µM in test [2]; more than 100 µM in test [3]; 5.64 µM in test [4]; more than 100 µM in [9]; more than 100 µM in test [10]. In test [7], this molecule had a TGI of more than 100 µM.
As for `CC(C)[C@H](C(=O)O[C@@H]1/C=C/C(=O)O[C@@H](C)CCC/C=C/[C@@H]2C[C@H](O)C[C@H]21)N(C)C`, the GI50 in test [1] is 8.45 µM; in [2], 5.25 µM; in [3], 16.8 µM; in test [4] it was 3.29 µM; in [5], 10.2 µM; in test [8], 14.9 µM. In addition, the GI50 is 5.01 µM in test [9], 13.2 µM in test [10], 8.54 µM in test [6] and 1.75 µM in [7]. Moreover, the TGI in test [1] was more than 65.3 µM; in test [2], 41.9 µM; in test [3], more than 89.2 µM; in test [4] it was 15.6 µM; in test [5], 58.9 µM; in test [8], 42.2 µM. The TGI in [9] was 28 µM; in test [10], more than 68.9 µM; in test [6], 37.8 µM; in test [7], 3.44 µM.
On to `Nc1nc2ncn(CC(O)COC(=O)c3ccccc3)c2c(=O)[nH]1` (centres undefined), for which the total growth inhibition concentration (TGI) in [1], in test [2], in test [3], in [4], in test [5] and in [9] was more than 100 µM in each case. The TGI in test [10], in test [6] and in test [7] was more than 100 µM throughout.
For `COc1cc(/C=C/c2cc(O)c(C/C=C(\C)CC/C=C(\C)CO)c(O)c2)cc2c1O[C@]1(C)CC[C@@H](O)C(C)(C)[C@H]1C2`, the total growth inhibition concentration (TGI) was 98.6 µM in test [1]; more than 100 µM in test [2]; more than 100 µM in test [4]; 11.1 µM in [5]; 0.0949 µM in test [8]; more than 100 µM in test [9]. In addition, the results for the TGI in [10] and in [6] were more than 82.3 µM and more than 70.2 µM, respectively. For the same molecule, the GI50 in test [5] is 3.4 µM; in [9], more than 58.3 µM; in test [10] it was more than 53.3 µM; in test [6], more than 29.3 µM.
As for `O=C1c2ccccc2C(=O)c2c1ccc1c2N=C(c2ccc(Br)cc2)CC(c2cccc3ccccc23)N1` (centres undefined), the TGI in test [1], in test [2], in test [3], in [4], in test [5] and in [9] was more than 100 µM throughout. The TGI in test [10], in test [6] and in test [7] was more than 100 µM throughout.
Take `C=C1C(=O)C2(C)OC2(C)C1C(=O)O` (centres undefined): the TGI in test [1], in test [2], in [3], in test [4], in test [5] and in test [9] was more than 100 µM each time. The TGI in [10], in test [6] and in test [7] was more than 100 µM in each case.
`COc1cc(Cn2c(SCC(=O)Nc3ccc(Cl)cc3)nc3ccccc3c2=O)cc(OC)c1OC`: the GI50 is 6.61 µM in test [2]; 6.29 µM in test [3]; 2.59 µM in test [4]; 2.29 µM in [5]; more than 100 µM in test [8]; 11.4 µM in [9]. Moreover, the GI50 in [10] was 4.82 µM; in test [6], 7.86 µM; in test [7], 6.38 µM. Further, the TGI in test [2] is 24.8 µM; in test [3], 37.1 µM; in test [4], 8.88 µM; in test [5], 6.5 µM; in test [8], more than 100 µM; in [9], 50.9 µM. The figures for the TGI in test [10], in [6] and in test [7] were 16.1 µM, 31 µM and 21.2 µM, respectively.
For `Fc1ccc(C2C3CCOc4c(ccc5ccccc45)C3=NN2c2ccccc2)cc1` (centres undefined), the GI50 in test [1] is more than 87.4 µM; in test [2] it was more than 77.9 µM; in [3], more than 66.2 µM; in test [4], more than 63.6 µM; in test [8] it was 30.7 µM; in test [9], more than 88.7 µM. The GI50 was more than 60.2 µM in test [10], 99.6 µM in test [6] and 71.4 µM in test [7]. In addition, the TGI in test [1], in test [2], in [3], in test [4], in test [8] and in test [9] was more than 100 µM each time. In addition, the TGI in test [10], in [6] and in [7] was more than 100 µM throughout.
Take `CC(C)COC(c1ccc2c(c1)OCO2)C(C)Br` (centres undefined): the TGI is 76 µM in test [1]; 59.7 µM in test [2]; more than 100 µM in test [3]; 23.2 µM in [4]; 71.3 µM in test [5]; more than 100 µM in test [9]. In addition, the TGI in test [10] was more than 100 µM; in test [6] it was 34.8 µM; in test [7], 36.4 µM.
`Fc1ccc(-c2c(-c3ccncc3)[nH]c3nccnc23)cc1`: the GI50 in test [2] was 10.9 µM; in test [3], 6.33 µM; in test [4], 3.69 µM; in [5] it was 9.94 µM; in [8] it was more than 25 µM; in test [9], 16.2 µM. Also, the GI50 in test [10] is 10.4 µM; in [6] it was 10.3 µM; in test [7] it was 11 µM. Also, the TGI in test [2] is more than 25 µM; in [3] it was more than 25 µM; in [4] it was 9.8 µM; in test [5], more than 25 µM; in [8] it was more than 25 µM; in test [9], more than 25 µM. Besides, the TGI in test [10], in test [6] and in [7] was more than 25 µM in each case.
As for `Cc1ccc(NC(=O)C(=O)CC(=O)c2ccccc2)cc1C`, the TGI in test [1], in test [2], in test [3], in test [4], in test [5] and in test [9] was more than 100 µM each time. The TGI in test [10], in [6] and in test [7] was more than 100 µM each time.
